From US8247610B2, “Amine linked modulators of γ-secretase” (Janssen Pharmaceutica N.V., priority 2007, dated 2012)

Molecular target: T1, γ-secretase (Homo sapiens, UniProt P49768)
T1 construct: endogenous in cells; host or cells: SKNBE2 cells carrying APP 695 wild type
Experiment: Screening for γ-secretase-modulating activity in SKNBE2 cells carrying the APP 695 wild type
Assay type: cell-based
Conditions: 0.3 μM; SKNBE2 cells carrying APP 695 wild type
Description: Screening of the Compounds of the Invention for γ-Secretase-Modulating Activity
Screening was carried out using SKNBE2 cells carrying the APP 695—wild type, grown in DMEM/NUT-mix F12 (HAM) provided by Gibco (cat no. 31330-38) containing 5% Serum/Fe supplemented with 1% non-essential amino acids.
Cells were grown to near confluency.
The screening was performed using the assay as described in Citron et al (1997) Nature Medicine 3: 67.

| inhibition at 0.3 µM | Molecule | inhibition @ 0.3 μM |
| --- | --- | --- |
| 0% | CC(C)CC(C(=O)O)c1cc(-c2ccc(C(F)(F)F)cc2)cc(N2CCCc3ccccc32)c1 (stereo not shown) [Compound 28, 2-[5-(3,4-Dihydro-2H-quinolin-1-yl)-4′-trifluoromethyl-biphenyl-3-yl]-4-methyl-pentanoic acid] |  |
| 22% | CC(C)CC(C(=O)O)c1cc(NC2CCCc3ccccc32)cc(-c2ccc(C(F)(F)F)cc2)c1 (stereo not shown) [Compound 34, 4-Methyl-2-[5-(1,2,3,4-tetrahydro-naphthalen-1-ylamino)-4′-trifluoromethyl-biphenyl-3-yl]-pentanoic acid] |  |
| 18% | CC(C)CC(C(=O)O)c1cc(NCc2ccc(C(C)(C)C)cc2)cc(-c2ccc(C(F)(F)F)cc2)c1 (stereo not shown) [Compound 37, 2-[5-(4-tert-Butyl-benzylamino)-4′-trifluoromethyl-biphenyl-3-yl]-4-methyl-pentanoic acid] |  |
| 0% | CC(C)C[C@@H](C(=O)O)c1cc(NCc2ccc(OC(F)(F)F)cc2)cc(-c2ccc(C(F)(F)F)cc2)c1 [Compound 41, 4-Methyl-2-[5-(4-trifluoromethoxy-benzylamino)-4′-trifluoromethyl-biphenyl-3-yl]-pentanoic acid] |  |
| 0% | CC(C)C[C@@H](C(=O)O)c1cc(NCc2cc(F)cc(F)c2)cc(-c2ccc(C(F)(F)F)cc2)c1 [Compound 43, (R) 2-[5-(3,5-Difluoro-benzylamino)-4′-trifluoromethyl-biphenyl-3-yl]-4-methyl-pentanoic acid] |  |
| 7% | CC(C)C[C@@H](C(=O)O)c1cc(NCc2ccc(C(F)(F)F)cc2)cc(-c2ccc(C(F)(F)F)cc2)c1 [Compound 44, (R) 4-Methyl-2-[4′-trifluoromethyl-5-(4-trifluoromethyl-benzylamino)-biphenyl-3-yl]-pentanoic acid] |  |
| 0% | CC(C)C[C@@H](C(=O)O)c1cc(NCc2ccc(C#N)cc2)cc(-c2ccc(C(F)(F)F)cc2)c1 [Compound 47, (R) 2-[5-(4-Cyano-benzylamino)-4′-trifluoromethyl-biphenyl-3-yl]-4-methyl-pentanoic acid] |  |
| 31% | CC(C)CCN(Cc1ccc(C#N)cc1)c1cc(-c2ccc(C(F)(F)F)cc2)cc([C@@H](CC(C)C)C(=O)O)c1 [Compound 48, (R) 2-{5-[(4-Cyano-benzyl)-(3-methyl-butyl)-amino]-4′-trifluoromethyl-biphenyl-3-yl}-4-methyl-pentanoic acid] |  |
| 0% | CC(C)CC(C(=O)O)c1cc(-c2ccc(C(F)(F)F)cc2)cc(N2CCc3ccccc3C2)c1 (stereo not shown) [Compound 53, 4-Methyl-2-[-5-(3,4-dihydroisoquinolin-2(1H)-yl)-4′-(trifluoromethyl)biphenyl-3-yl]-pentanoic acid] |  |

The remaining lines, values behind:

| Molecule | inhibition at 0.3 µM | inhibition @ 0.3 μM |
| --- | --- | --- |
| 2-(5-(2,4-difluorobenzylamino)-4′-(trifluoromethyl)biphenyl-3-yl)-4-methyl pentanoic acid [Compound 52] |  | 0% inhi- bition @ 0.3 μM |
| CC(C)CCC(Nc1cc(CC(=O)O)cc(-c2ccc(C(F)(F)F)cc2)c1)c1ccc(C(F)(F)F)cc1 (stereo not shown) [Compound 32] | 25% |  |
| CC(C)CCC(Nc1cc(CC(=O)O)cc(-c2ccc(C(F)(F)F)cc2)c1)c1cc(F)cc(F)c1 (stereo not shown) [Compound 33] | 11% |  |
| CC(C)C[C@@H](C(=O)O)c1cc(NCc2cc(C(F)(F)F)cc(C(F)(F)F)c2)cc(-c2ccc(C(F)(F)F)cc2)c1 [Compound 46, (R) 2-[5-(3,5-Bis-trifluoromethyl-benzylamino)-4′-trifluoromethyl-biphenyl-3-yl]-4-methyl-pentanoic acid] | 6% |  |
| CC(C)CCC(c1cc(F)cc(F)c1)N(C)c1cc(-c2ccc(C(F)(F)F)cc2)cc(C(CC(C)C)C(=O)O)c1 (stereo not shown) [Compound 50, 2-(5-{[1-(3,5-Difluoro-phenyl)-4-methyl-pentyl]-methyl-amino}-4′-trifluoromethyl-biphenyl-3-yl)-4-methyl-pentanoic acid] | 65% |  |

Same assay, conditions: SKNBE2 cells carrying APP 695 wild type

| EC50 | Molecule |
| --- | --- |
| 1.13 µM | CC(C)CC(C(=O)O)c1cc(-c2ccc(C(F)(F)F)cc2)cc(N(C)c2ccc(Cl)cc2)c1 (single isomer, unassigned) [Example 21, (R*)2-{5-[(4-Chloro-phenyl)-methyl-amino]-4′-trifluoromethyl-biphenyl-3-yl}-4-methyl-pentanoic acid] |
| 2.15 µM | CC(C)CC(C(=O)O)c1cc(-c2ccc(C(F)(F)F)cc2)cc(N(C)c2ccc(Cl)cc2)c1 (single isomer, unassigned) [Example 22, (S*)2-{5-[(4-Chloro-phenyl)-methyl-amino]-4′-trifluoromethyl-biphenyl-3-yl}-4-methyl-pentanoic acid] |
| 0.36 µM | CC(C)CC(C(=O)O)c1cc(-c2ccc(C(F)(F)F)cc2)cc(N2CCCc3ccc(C(F)(F)F)cc32)c1 (stereo not shown) [Compound 26, 4-Methyl-2-[4′-trifluoromethyl-5-(7-trifluoromethyl-3,4-dihydro-2H-quinolin-1-yl)-biphenyl-3-yl]-pentanoic acid] |
| 0.58 µM | CC(C)CCN(Cc1ccc(C(F)(F)F)cc1)c1cc(-c2ccc(C(F)(F)F)cc2)cc(C(CC(C)C)C(=O)O)c1 (stereo not shown) [Compound 45, 4-Methyl-2-{5-[(3-methyl-butyl)-(4-trifluoromethyl-benzyl)-amino]-4′-trifluoromethyl-biphenyl-3-yl}-pentanoic acid] |
| 0.64 µM | CC(C)CC(C(=O)O)c1cc(NCc2ccc(F)cc2C(F)(F)F)cc(-c2ccc(C(F)(F)F)cc2)c1 (stereo not shown) [Compound 51, 2-(5-(4-fluoro-2-(trifluoromethyl)benzylamino)-4′-(trifluoromethyl)biphenyl-3-yl)-4-methylpentanoic acid] |

Continued, molecule first:

| Molecule | EC50 |
| --- | --- |
| CC(C)CCN(Cc1cc(-c2ccc(C(F)(F)F)cc2)cc([C@@H](CC(C)C)C(=O)O)c1)Cc1ccc(F)c(F)c1 (stereo in doubt) [Example 5, 2-(5-{[(3,4-Difluoro-benzyl)-(3-methyl-butyl)-amino]-methyl}-4′-trifluoromethyl-biphenyl-3-yl)-4-methyl-pentanoic acid] | 0.065 µM |
| CC(C)CC(C(=O)O)c1cc(-c2ccc(Cl)c(C(F)(F)F)c2)cc(N(C)c2cc(C(F)(F)F)cc(C(F)(F)F)c2)c1 (stereo not shown) [Compound 27, 2-[4′-Chloro-5-(N-[3,5-bis-(trifluoromethyl)phenyl]-N-methylamino)-3′-trifluoromethyl-biphenyl-3-yl]-4-methyl-pentanoic acid] | 0.48 µM |
| CC(C)CCC(Nc1cc(-c2ccc(C(F)(F)F)cc2)cc(C(CC(C)C)C(=O)O)c1)c1cc(F)cc(F)c1 (stereo not shown) [Compound 29, 2-{5-[1-(3,5-Difluoro-phenyl)-4-methyl-pentylamino]-4′-trifluoromethyl-biphenyl-3-yl}-4-methyl-pentanoic acid] | 0.3 µM |
| CC(C)CCC(Nc1cc(-c2ccc(C(F)(F)F)cc2)cc(C(CC(C)C)C(=O)O)c1)c1cc(C(F)(F)F)cc(C(F)(F)F)c1 (stereo not shown) [Compound 30, 2-{5-[1-(3,5-Bis-trifluoromethyl-phenyl)-4-methyl-pentylamino]-4′-trifluoromethyl-biphenyl-3-yl}-4-methyl-pentanoic acid] | 0.22 µM |
| CC(C)CCC(Nc1cc(-c2ccc(C(F)(F)F)cc2)cc(C(CC(C)C)C(=O)O)c1)c1ccc(C(F)(F)F)cc1 (stereo not shown) [Compound 31, 4-Methyl-2-{5-[4-methyl-1-(4-trifluoromethyl-phenyl)-pentylamino]-4′-trifluoromethyl-biphenyl-3-yl}-pentanoic acid] | 0.27 µM |
| CC(C)CCC(Nc1cc(-c2ccc(C(F)(F)F)cc2)cc(C(CC(C)C)C(=O)O)c1)c1cc(F)c(F)c(F)c1 (stereo not shown) [Compound 38, 4-Methyl-2-{5-[4-methyl-1-(3,4,5-trifluoro-phenyl)-pentylamino]-4′-trifluoromethyl-biphenyl-3-yl}-pentanoic acid] | 0.23 µM |
| CC(C)CCN(Cc1ccc(C(C)(C)C)cc1)c1cc(-c2ccc(C(F)(F)F)cc2)cc(C(CC(C)C)C(=O)O)c1 (stereo not shown) [Compound 39, 2-{5-[(4-tert-Butyl-benzyl)-(3-methyl-butyl)-amino]-4′-trifluoromethyl-biphenyl-3-yl}-4-methyl-pentanoic acid] | 0.58 µM |
| CC(C)CCN(Cc1cc(F)cc(F)c1)c1cc(-c2ccc(C(F)(F)F)cc2)cc([C@@H](CC(C)C)C(=O)O)c1 [Compound 40, 2-{5-[(3,5-Difluoro-benzyl)-(3-methyl-butyl)-amino]-4′-trifluoromethyl-biphenyl-3-yl}-4-methyl-pentanoic acid] | 0.19 µM |
| CC(C)CCN(Cc1ccc(OC(F)(F)F)cc1)c1cc(-c2ccc(C(F)(F)F)cc2)cc([C@@H](CC(C)C)C(=O)O)c1 [Compound 42, (R) 4-Methyl-2-{5-[(3-methyl-butyl)-(4-trifluoromethoxy-benzyl)-amino]-4′-trifluoromethyl-biphenyl-3-yl}-pentanoic acid] | 0.64 µM |
| CC(C)CCN(Cc1cc(C(F)(F)F)cc(C(F)(F)F)c1)c1cc(-c2ccc(C(F)(F)F)cc2)cc([C@@H](CC(C)C)C(=O)O)c1 [Compound 49, (R) 2-{5-[(3,5-Bis-trifluoromethyl-benzyl)-(3-methyl-butyl)-amino]-4′-trifluoromethyl-biphenyl-3-yl}-4-methyl-pentanoic acid] | 0.22 µM |
| CC(C)CCN(Cc1cc(-c2ccc(C(F)(F)F)cc2)cc(C(CC(C)C)C(=O)O)c1)Cc1cc(F)c(F)c(F)c1 (stereo not shown) [Compound 54, 4-Methyl-2-(5-{[(3-methyl-butyl)-(3,4,5-trifluoro-benzyl)-amino]-methyl}-4′-trifluoromethyl-biphenyl-3-yl)-pentanoic acid] | 0.27 µM |
| CC(C)CCN(Cc1ccc(C(F)(F)F)cc1)Cc1cc(-c2ccc(C(F)(F)F)cc2)cc(C(CC(C)C)C(=O)O)c1 (stereo not shown) [Compound 56, 4-Methyl-2-(5-{[(3-methyl-butyl)-(4-trifluoromethyl-benzyl)-amino]-methyl}-4′-trifluoromethyl-biphenyl-3-yl)-pentanoic acid] | 0.22 µM |
